Laboratory results: patent US12116353B1, “Crystalline chloro-n-(4-(morpholinomethyl)phenyl)benzamide and crystalline hydrochloride salt” (GEN1E LIFESCIENCES INC., priority 2024, dated 2024)
Values after ≈ are worked out from the molar mass of the structure shown.

Assay: Equilibrium solubility in aqueous buffers
Format: physicochemical
Details: thermodynamic from solid, LC-MS/MS
Method: The equilibrium solubility of crystalline compound (1) and crystalline compound (2) was measured in various aqueous buffers. The pH 4.0 and pH 5.0 buffers were prepared by combining 50 mL of 0.2 M potassium biphthalate with 150 mL of H2O, and then adjusting to pH 4.0 or pH 5.0 with 10 N HCl. The pH 6.0 buffer was prepared by combining 50 mL of 0.2 M KH2PO4 with 150 mL of H2O, and then adjusting to pH 6.0 with 10 N NaOH. The pH 7.4 buffer was prepared by combining 50 mL of 0.2 M KH2PO4 with 150 mL of H2O, and then adjusting to pH 7.4 with 10 N NaOH. At least 1 mg of powder for each compound was combined with 1 mL of each buffer to make a saturated mixture. The samples were shaken overnight on a Thermomixer® at room temperature. The samples were then passed through a […] PTFE syringe filter. The filtrate was sampled and diluted in duplicate as appropriate into a mixture of 1:1 buffer:acetonitrile (ACN) prior to analysis. All samples were assayed by LC-MS/MS using electrospray ionization against standards prepared in a mixture of 1:1 assay buffer:ACN. Standard concentrations ranged from 1.0 μM to 0.3 nM. The samples were analyzed by LCMS using a Waters Acuity® UPLC BEH Phenyl 30×2.1 mm, 1.7 μm liquid chromatography column and a PE Sciex® API 4000 mass spectrometer equipped with a Turbo Ionspray.

Cl.O=C(Nc1ccc(CN2CCOCC2)cc1)c1ccc(Cl)cc1 [Crystalline Compound (1), 4-chloro-N-(4-(morpholinomethyl)phenyl)benzamide hydrochloride]
solubility (aqueous potassium biphthalate buffer, aqueous buffer pH 4.0, shaken overnight at room temperature): 12.5 mM
solubility (aqueous potassium biphthalate buffer, aqueous buffer pH 5.0, shaken overnight at room temperature): 10.2 mM
solubility (aqueous potassium phosphate (KH2PO4) buffer, aqueous buffer pH 6.0, shaken overnight at room temperature): 8.17 mM

O=C(Nc1ccc(CN2CCOCC2)cc1)c1ccc(Cl)cc1 [Crystalline Compound (2), 4-chloro-N-(4-(morpholinomethyl)phenyl)benzamide]
solubility (aqueous potassium phosphate (KH2PO4) buffer, aqueous buffer pH 7.4, shaken overnight at room temperature): 0.0125 mM (≈ 4.14 µg/mL)
